Measurements reported in ChEMBL document CHEMBL1201862, “PubChem BioAssay data set” (2004).
The source made the active and inactive calls.

Key:
[1] = NIH3T3 cell viability loss – ATP luminescence, mouse fibroblasts, counter-screen, dose response (AID 2010); format: functional, cell-based;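 further: cells exposed to compound for about 90 hours before reading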
[2] = biological target: Genome polyprotein (dengue virus type 2, UniProt P29990); test: flavivirus cap methylation enzyme inhibition – biochemical, confirmation dose response, primary screen (AID 588689); format: functional
[3] = Fluorescence-based cell-based high throughput dose response assay for inhibitors of the interaction of nucleotide-binding oligomerization domain containing 2 (NOD2) and the receptor-interacting serine-threonine kinase 2 (RIPK2).; format: functional; settings: Homo sapiens
[4] = loss of viability in HepG2 cells – cell-based, CellTiter-Glo, cherry-picked, cytotoxicity control for Shn3 inhibitor project, dose response (AID 624134); format: functional
[5] = biological target: T1, Rac GTPase-activating protein 1 (Homo sapiens, UniProt Q9H0H5); test: blockers of MgcRacGAP-driven Rac1 GTP hydrolysis – biochemical, ADP Hunter fluorescence, primary and confirmatory, confirmation (AID 624330); format: functional
T1 sequence (Q9H0H5 whole entry): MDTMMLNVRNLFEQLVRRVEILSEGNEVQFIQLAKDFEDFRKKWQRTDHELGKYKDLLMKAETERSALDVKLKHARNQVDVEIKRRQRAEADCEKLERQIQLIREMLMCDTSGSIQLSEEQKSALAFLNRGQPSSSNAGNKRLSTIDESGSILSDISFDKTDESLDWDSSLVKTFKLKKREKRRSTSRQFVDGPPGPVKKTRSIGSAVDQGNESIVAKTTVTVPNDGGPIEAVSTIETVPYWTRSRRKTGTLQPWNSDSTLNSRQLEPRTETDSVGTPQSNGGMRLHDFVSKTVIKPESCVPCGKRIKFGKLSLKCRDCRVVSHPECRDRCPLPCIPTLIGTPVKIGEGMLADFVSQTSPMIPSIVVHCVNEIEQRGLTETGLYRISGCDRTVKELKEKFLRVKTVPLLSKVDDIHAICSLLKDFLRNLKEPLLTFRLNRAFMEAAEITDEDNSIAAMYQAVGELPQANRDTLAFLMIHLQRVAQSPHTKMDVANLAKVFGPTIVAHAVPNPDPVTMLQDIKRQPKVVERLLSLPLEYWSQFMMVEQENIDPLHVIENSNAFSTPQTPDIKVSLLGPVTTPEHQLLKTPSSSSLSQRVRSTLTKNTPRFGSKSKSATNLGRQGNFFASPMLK

[6] = reduced cellular PGC1a acetyl-lysine signal – cell-based, cherry-picked samples, dose response (AID 720514); format: functional;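 further: potency may reflect raised or lowered acetylation signal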
[7] = biological target: T2, Protein RecA (Mycobacterium tuberculosis, UniProt P9WHJ3); test: Fluorescence Cell-Free Homogeneous Dose Retest to Identify Inhibitors of RecA-Intein Splicing Activity. [Related pubchem assays (depositor defined):AID2097, AID2223, AID489010, AID492950]; format: functional
T2 sequence (P9WHJ3 whole entry): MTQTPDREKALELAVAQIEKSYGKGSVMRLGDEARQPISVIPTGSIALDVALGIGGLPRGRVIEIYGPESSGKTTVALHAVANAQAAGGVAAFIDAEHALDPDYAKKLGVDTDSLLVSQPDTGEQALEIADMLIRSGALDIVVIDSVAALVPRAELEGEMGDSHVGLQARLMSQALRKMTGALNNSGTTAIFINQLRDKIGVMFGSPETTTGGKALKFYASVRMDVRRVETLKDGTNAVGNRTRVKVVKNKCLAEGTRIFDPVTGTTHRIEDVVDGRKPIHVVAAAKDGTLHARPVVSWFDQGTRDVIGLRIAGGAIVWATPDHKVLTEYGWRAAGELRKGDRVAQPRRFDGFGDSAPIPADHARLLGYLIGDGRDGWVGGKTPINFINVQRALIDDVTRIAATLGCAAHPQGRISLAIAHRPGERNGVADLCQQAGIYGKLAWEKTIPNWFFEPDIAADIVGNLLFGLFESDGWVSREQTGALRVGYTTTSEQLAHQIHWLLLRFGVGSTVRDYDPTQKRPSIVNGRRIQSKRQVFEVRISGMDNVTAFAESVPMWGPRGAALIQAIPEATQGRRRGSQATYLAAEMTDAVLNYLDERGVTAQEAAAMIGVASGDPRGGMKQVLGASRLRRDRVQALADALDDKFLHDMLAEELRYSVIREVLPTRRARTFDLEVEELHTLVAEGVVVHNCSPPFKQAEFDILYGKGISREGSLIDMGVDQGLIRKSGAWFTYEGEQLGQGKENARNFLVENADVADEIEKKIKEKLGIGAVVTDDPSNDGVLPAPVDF

[8] = reduction of Shn3 3'UTR-driven luciferase in osteoblasts – cell-based, Clone20 osteoblasts, firefly luciferase, cherry-picked, dose response (AID 624132); format: functional;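 further: firefly luciferase luminescence from reporter carrying the Shn3 3'UTR in osteoblasts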
[9] = Trypanosoma cruzi growth suppression in host cells – NIH3T3 host cells, beta-gal luminescence, confirmation (AID 2044); format: functional, cell-based;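 further: intracellular parasites grown in NIH/3T3 mouse fibroblasts as host cells; luminescent beta-galactosidase reporter signal from transgenic T. cruzi replicating inside host cells; inhibitors lower the luminescence signal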
[10] = viability loss in HeLa cells – cytotoxicity control for MgcRacGAP inhibitor project, dose response (AID 624300); format: functional
[11] = biological target: T3, Replicative DNA helicase DnaB (Mycobacterium tuberculosis, UniProt P9WMR3); test: DnaB intein splicing inhibitors, dose response, biochemical, cell-free fluorescence (AID 449749); format: functional
T3 sequence (P9WMR3 whole entry): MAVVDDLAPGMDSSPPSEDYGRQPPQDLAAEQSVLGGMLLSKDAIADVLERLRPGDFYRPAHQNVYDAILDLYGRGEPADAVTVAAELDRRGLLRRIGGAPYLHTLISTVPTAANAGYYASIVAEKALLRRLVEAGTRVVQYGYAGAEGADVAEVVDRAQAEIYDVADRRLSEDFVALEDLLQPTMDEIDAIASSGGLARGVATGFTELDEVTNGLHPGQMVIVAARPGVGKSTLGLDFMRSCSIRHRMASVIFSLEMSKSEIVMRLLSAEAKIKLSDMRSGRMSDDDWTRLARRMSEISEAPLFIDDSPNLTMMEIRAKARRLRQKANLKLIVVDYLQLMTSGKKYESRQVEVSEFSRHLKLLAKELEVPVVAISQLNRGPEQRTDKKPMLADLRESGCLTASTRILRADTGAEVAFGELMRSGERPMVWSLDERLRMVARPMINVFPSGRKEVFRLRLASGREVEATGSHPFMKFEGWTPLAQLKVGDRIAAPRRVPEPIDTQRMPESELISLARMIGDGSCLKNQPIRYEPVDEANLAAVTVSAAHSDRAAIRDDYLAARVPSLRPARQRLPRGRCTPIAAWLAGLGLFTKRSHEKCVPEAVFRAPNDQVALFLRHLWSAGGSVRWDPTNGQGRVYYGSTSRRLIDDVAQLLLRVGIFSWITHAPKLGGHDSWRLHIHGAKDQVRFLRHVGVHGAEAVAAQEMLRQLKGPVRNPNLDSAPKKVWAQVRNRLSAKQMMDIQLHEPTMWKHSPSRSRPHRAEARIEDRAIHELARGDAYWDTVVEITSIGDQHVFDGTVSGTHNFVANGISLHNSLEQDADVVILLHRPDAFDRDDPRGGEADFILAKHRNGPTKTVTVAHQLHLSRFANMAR

[12] = non-specific 3'UTR reporter inhibition in Clone20-Shn3RL – cell-based, Renilla luciferase, cherry-picked, counter-screen for Shn3 inhibitor project, dose response (AID 624133); format: functional
[13] = biological target: T4, Carboxy-terminal domain RNA polymerase II polypeptide A small phosphatase 1 (Homo sapiens, UniProt Q9GZU7); test: CTDSP1 inhibitors, concentration-response, biochemical, absorbance readout, ultra-high-throughput screen actives (AID 540297); format: functional
T4 sequence (Q9GZU7 whole entry): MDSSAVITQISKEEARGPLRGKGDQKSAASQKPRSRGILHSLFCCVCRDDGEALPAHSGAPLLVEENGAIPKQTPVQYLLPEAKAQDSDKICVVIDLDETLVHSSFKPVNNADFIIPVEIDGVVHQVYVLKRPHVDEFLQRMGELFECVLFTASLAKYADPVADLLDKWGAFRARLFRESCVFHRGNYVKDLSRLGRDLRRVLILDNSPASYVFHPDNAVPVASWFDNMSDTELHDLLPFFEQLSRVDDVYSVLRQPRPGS

[14] = biological target: T5, Probable nicotinate-nucleotide adenylyltransferase (Staphylococcus aureus (strain N315), UniProt P65502); format: functional, Staphylococcus aureus subsp. aureus N315; settings: read-out: IC50_Mean;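 on IC50 Mean: confirmatory dose-response retesting of NadD inhibitor hits first found in an ultra-high-throughput screen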
[15] = biological target: T5, Probable nicotinate-nucleotide adenylyltransferase; format: functional, Staphylococcus aureus subsp. aureus N315
[16] = system: INS1; test: INS-1E survival protection against cytokine death – cell-based, luminescence, retest, dose response (AID 449756); format: functional; settings: Rattus norvegicus;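 further: cell death triggered by IL-1 beta plus TNF-alpha plus IFN-gamma mixture; protective hits raise ATP signal compared with cytokine alone wells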
[17] = biological target: Protein Wnt-3a (Mus musculus, UniProt P27467); test: antagonism of Wnt3a pathway luciferase reporter – Wnt-LIGHT cells, luminescence, selectivity assay for Gli-SUFU antagonist project, dose response (AID 651570); format: functional; settings: read-out: IC50_Mean;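 further: Wnt-LIGHT reporter cells stimulated with conditioned medium from Wnt3a-producing cells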
[18] = biological target: T6, High affinity choline transporter 1 (Homo sapiens, UniProt Q9GZV3); test: human choline transporter blockers, potency – cell-based, 5-point CRC, membrane potential dye, dose response (AID 504840); format: functional
T6 sequence (Q9GZV3 whole entry): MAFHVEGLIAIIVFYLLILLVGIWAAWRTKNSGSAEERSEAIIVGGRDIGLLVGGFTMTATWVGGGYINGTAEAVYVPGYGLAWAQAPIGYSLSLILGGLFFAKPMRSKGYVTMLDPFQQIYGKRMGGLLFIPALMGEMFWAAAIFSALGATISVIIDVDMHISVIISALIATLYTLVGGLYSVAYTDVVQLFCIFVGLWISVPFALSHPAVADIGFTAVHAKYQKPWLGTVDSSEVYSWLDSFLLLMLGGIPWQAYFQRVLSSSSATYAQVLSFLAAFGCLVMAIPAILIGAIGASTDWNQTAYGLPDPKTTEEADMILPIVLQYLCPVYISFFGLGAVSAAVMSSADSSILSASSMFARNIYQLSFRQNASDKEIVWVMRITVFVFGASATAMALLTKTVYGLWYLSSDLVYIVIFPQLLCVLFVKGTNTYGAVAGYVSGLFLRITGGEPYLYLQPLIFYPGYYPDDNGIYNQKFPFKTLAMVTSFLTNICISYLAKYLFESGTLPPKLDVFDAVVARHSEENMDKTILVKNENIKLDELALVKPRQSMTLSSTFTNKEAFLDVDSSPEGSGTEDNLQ

[19] = biological target: T6, High affinity choline transporter 1; test: human choline transporter blockers, potency – cell-based, 10-point CRC, membrane potential dye, dose response (AID 588401); format: functional;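 further: membrane potential dye fluorescence of choline-evoked depolarization via CHT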
[20] = Luminescence Cell-Based Dose Response HTS to Identify Activators of Luciferase Translation or Activity in H4 […] Cells. [Related pubchem assays: 1829 (Project Summary), 1814 (Primary HTS)]; format: functional
[21] = Luminescence Cell-Based Dose Confirmation HTS to Identify Activators of 5'UTR Stem-Loop Driven Alpha-Synuclein mRNA Translation in H4 Neuroglioblastoma Cells. [Related pubchem assays: 1829 (Project Summary), 1814 (Primary HTS)]; format: functional
[22] = viability of uninfected HEp-2 cells – cell-based, HTS, cytotoxicity control for RSV inhibitor project, dose response (AID 2410); format: functional; settings: human respiratory syncytial virus
[23] = system: H4; test: Luminescence Cell-Based Dose Response HTS to Identify Activators of 5'UTR Stem-Loop Driven Prion Protein mRNA Translation in H4 Neuroglioblastoma Cells. [Related pubchem assays: 1829 (Project Summary), 1814 (Primary HTS)]; format: functional; settings: Homo sapiens
[24] = system: HeLa; test: ATP-based viability loss in HeLa cells – cell-based, CellTiter-Glo luminescence, cherry-pick samples, cytotoxicity control for MITF activator project, dose response (AID 540259); format: functional; settings: Homo sapiens
[25] = biological target: T7, Small ubiquitin-related modifier 1 (Homo sapiens, UniProt P63165); test: SUMO1 protein interaction blockers, potency – biochemical, fluorescence polarization, uHTS hits, dose response (AID 624382); format: functional; settings: read-out: IC50_Mean
[26] = biological target: T7, Small ubiquitin-related modifier 1; test: SUMO1 protein-protein binding blockers, potency – biochemical, FRET, dose response (AID 624383); format: functional; settings: read-out: IC50_Mean

T5 sequence (P65502 whole entry): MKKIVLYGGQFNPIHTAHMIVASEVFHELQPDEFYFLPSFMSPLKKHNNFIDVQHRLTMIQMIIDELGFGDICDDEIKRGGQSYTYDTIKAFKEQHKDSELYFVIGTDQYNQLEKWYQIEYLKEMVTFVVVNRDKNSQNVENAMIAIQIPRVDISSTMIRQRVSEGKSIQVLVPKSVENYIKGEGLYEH
T7 sequence (P63165 whole entry): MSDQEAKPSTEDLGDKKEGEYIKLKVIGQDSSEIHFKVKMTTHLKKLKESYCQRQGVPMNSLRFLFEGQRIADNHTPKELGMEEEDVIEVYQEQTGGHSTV
Genome polyprotein, sequence (P29990 2492-3391 limits assumed): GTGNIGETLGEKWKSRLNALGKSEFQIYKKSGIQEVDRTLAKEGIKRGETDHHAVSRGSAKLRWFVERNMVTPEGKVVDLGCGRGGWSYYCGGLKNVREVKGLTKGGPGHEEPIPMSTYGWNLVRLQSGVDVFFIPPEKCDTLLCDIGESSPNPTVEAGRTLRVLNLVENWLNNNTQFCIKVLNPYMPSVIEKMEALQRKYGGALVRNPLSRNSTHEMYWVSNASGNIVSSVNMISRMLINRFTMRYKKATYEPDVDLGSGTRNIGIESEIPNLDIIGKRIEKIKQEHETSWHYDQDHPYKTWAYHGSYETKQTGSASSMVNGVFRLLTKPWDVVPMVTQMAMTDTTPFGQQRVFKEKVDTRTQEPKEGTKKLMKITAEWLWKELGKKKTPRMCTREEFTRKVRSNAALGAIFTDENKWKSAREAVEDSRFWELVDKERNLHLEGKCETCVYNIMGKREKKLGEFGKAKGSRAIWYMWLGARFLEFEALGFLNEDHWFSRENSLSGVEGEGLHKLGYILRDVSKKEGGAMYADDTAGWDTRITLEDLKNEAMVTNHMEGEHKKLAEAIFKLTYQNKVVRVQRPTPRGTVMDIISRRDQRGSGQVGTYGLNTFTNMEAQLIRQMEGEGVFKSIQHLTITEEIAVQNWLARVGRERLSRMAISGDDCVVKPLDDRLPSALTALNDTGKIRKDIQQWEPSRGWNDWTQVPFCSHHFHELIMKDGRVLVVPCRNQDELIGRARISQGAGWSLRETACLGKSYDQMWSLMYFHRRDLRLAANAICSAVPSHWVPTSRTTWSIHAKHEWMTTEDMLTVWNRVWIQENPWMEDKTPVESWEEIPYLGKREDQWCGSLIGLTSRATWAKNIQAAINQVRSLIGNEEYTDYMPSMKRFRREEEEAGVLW
Protein Wnt-3a, sequence (P27467 whole entry): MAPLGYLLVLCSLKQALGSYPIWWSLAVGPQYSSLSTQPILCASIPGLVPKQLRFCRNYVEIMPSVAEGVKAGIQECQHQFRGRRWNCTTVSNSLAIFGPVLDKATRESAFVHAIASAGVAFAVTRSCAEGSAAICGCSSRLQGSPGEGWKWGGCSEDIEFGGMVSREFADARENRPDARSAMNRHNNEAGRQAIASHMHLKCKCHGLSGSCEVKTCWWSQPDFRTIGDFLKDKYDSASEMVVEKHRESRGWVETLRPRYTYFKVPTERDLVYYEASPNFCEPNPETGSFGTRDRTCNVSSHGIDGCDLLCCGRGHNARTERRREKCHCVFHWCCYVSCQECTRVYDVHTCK

O=C(Nc1ccccc1)C1=C(c2ccccc2)S(=O)(=O)CCS1(=O)=O
EC50 [1]: 2.06 µM (active) | IC50 [2]: > 100 µM (active) | IC50 [3]: 3.59 µM (active) | AC50 [4]: 15.4 µM (active) | IC50 [5]: 123 µM (active) | AC50 [6]: 8.27 µM (active) | EC50 [7]: 0.682 µM (active) | AC50 [8]: 1.37 µM (active) | EC50 [9]: 1.31 µM (active) | CC50 [10]: 71.9 µM (active) | AC50 [11]: 1.42 µM (active) | AC50 [12]: 10.3 µM (active)

C[C@@H]1CN([C@H](C)CO)C(=O)c2cc(NC(=O)c3ccncc3)ccc2O[C@@H]1CN(C)C(=O)Nc1ccccc1
IC50 [13]: 12.8 µM (active) | IC50 [14]: 35.2 µM (active) | IC50 [15]: 26.9 µM (active)

CCCCSc1nc2sc3c(c2c(=O)n1-c1ccc(C)cc1)CCN(C)C3
AC50 [16]: 10.1 µM (active) | IC50 [17]: 10.8 µM (active)

COc1cccc(CCNC(=O)c2ccc(OC)c(OC3CCN(C(C)C)CC3)c2)c1
IC50 [18]: 5 µM (active) | IC50 [19]: 3.98 µM (active)

COc1ccccc1N1CCN(C2=Nc3cccc4cccc2c34)CC1
EC50 [20]: 19.1 µM (active) | EC50 [21]: 43.3 µM (active) | CC50 [22]: 25.4 µM (active) | EC50 [23]: 18.5 µM (active) | AC50 [24]: 27.1 µM (active)

O=C(Nc1ccc(N2CCCC2)cc1)c1cc(Br)ccc1Cl
IC50 [14]: 35.9 µM (active) | IC50 [15]: 21.7 µM (active)

Oc1ccc(N=Nc2ccccc2)cc1
IC50 [5]: 70.9 µM (active) | AC50 [24]: 98.1 µM (active)

Cn1c(-c2ccc(Cl)cc2)cnc1NCc1cc2c(cc1[N+](=O)[O-])OCO2
IC50 [5]: 73.5 µM (active) | CC50 [10]: 100 µM (active)

COc1ccc(C(=O)Nc2nc3cc4c(cc3s2)OCCO4)c(OC)c1
IC50 [25]: > 66.6 µM (inactive) | IC50 [26]: 2.77 µM (active)

O=C(COC(=O)CCC(=O)c1ccc(F)cc1)Nc1ccc2[nH]c(O)nc2c1
IC50 [25]: > 66.6 µM (inactive) | IC50 [26]: 17.6 µM (active)

Cc1ccc(S(=O)(=O)Nc2ccc(Nc3nccn4c(-c5cccc(OC(F)(F)F)c5)cnc34)cc2)cc1
IC50 [14]: 27.2 µM (active) | IC50 [15]: 16.2 µM (active)
